In ChEMBL document CHEMBL2007661, “Compounds: GSK PKIS; Assays: UNC Frye lab” (2012):
Where “and” joins values, the source holds several entries; their conditions need not be identical. Equal values may be shown once.

Tests used:
[1] = target: T1, Tyrosine-protein kinase Mer (Homo sapiens) (UniProt Q12866); conditions: at 10 µM
T1 sequence (whole entry): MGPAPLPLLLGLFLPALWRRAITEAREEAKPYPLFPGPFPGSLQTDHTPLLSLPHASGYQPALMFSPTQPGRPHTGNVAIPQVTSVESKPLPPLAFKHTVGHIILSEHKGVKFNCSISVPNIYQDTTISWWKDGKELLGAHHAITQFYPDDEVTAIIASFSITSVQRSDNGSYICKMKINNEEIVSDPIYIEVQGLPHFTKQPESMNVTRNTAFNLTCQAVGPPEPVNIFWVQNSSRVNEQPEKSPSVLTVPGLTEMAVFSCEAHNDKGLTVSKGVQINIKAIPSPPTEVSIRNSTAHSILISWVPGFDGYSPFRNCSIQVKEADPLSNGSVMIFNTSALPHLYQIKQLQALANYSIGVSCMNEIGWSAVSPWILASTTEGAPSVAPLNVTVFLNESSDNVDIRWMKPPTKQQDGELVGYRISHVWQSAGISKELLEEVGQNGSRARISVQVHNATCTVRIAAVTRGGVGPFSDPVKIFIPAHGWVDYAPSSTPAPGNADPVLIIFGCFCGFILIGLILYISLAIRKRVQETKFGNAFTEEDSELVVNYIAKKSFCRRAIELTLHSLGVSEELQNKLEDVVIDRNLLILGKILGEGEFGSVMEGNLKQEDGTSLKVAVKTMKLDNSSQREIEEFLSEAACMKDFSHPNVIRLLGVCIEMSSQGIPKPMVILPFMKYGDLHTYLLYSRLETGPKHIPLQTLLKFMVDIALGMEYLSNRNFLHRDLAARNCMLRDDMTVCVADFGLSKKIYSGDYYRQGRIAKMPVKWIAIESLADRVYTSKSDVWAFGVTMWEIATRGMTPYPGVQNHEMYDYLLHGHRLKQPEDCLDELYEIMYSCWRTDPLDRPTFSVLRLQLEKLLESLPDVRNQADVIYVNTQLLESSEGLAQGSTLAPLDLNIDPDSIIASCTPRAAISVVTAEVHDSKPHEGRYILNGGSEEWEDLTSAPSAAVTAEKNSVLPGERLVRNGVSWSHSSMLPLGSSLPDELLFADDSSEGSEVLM

[2] = target: T2, Inhibitor of nuclear factor kappa-B kinase subunit beta (Homo sapiens) (UniProt O14920); conditions: at 1 µM
T2 sequence (whole entry): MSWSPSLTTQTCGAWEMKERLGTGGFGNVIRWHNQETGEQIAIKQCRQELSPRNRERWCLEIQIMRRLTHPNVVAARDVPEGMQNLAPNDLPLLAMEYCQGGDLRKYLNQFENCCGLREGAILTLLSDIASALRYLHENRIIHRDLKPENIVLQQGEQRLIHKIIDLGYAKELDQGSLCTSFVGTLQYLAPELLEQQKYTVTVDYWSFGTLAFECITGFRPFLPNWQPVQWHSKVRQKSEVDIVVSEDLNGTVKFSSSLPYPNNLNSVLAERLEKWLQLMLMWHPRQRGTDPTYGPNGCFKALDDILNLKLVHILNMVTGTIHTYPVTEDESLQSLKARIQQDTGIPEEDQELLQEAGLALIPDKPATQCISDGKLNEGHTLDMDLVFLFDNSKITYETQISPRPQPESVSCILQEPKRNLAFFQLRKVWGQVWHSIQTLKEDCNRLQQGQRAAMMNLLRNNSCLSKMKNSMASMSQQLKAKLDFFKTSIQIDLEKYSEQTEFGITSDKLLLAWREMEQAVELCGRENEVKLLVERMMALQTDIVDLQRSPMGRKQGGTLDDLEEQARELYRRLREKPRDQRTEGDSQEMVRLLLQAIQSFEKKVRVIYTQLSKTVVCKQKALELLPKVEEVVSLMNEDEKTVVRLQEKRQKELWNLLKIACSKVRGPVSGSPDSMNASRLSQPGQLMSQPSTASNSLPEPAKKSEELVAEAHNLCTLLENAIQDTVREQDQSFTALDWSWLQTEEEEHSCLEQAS

[3] = target: T3, Inhibitor of nuclear factor kappa-B kinase subunit alpha (Homo sapiens) (UniProt O15111); conditions: at 1 µM
T3 sequence (whole entry): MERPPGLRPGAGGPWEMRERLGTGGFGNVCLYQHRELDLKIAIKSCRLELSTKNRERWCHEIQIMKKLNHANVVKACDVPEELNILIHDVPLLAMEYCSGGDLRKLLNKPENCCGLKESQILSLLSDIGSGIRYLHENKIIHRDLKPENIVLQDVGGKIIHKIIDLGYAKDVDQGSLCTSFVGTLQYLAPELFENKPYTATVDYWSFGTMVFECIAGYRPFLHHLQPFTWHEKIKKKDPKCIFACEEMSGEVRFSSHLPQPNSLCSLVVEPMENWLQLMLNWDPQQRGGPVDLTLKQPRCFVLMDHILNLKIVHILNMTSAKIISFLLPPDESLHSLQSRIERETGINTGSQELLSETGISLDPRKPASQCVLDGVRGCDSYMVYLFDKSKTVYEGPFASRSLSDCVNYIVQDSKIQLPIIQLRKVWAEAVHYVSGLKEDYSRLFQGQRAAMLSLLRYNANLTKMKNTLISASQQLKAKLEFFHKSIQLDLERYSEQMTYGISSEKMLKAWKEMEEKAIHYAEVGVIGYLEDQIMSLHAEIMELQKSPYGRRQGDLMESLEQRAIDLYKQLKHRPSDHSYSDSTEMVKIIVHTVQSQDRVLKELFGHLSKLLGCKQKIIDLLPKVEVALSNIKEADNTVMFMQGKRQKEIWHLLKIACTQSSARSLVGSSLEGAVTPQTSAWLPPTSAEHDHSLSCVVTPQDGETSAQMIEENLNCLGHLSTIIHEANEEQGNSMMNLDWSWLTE

Structure (SMILES) | inhibition [1] | inhibition [2] | inhibition [3]
FC(F)(F)c1ccc(-c2nn3ncccc3c2-c2ccnc(Nc3ccc4c(c3)OCCO4)n2)cc1 | -6% | -1% and -3% | 1% and 0%
COc1ccc(-c2ccncc2)cc1C(N)=O | 3% | 3% and 4% | -5% and -4%
NC(=O)c1sc(-n2cnc3ccccc32)cc1OCc1ccccc1Br | 45% | 1% and 0% | 0% and -1%
Cc1ccc2c(-c3ccnc(Nc4cccc(C(F)(F)F)c4)n3)c(-c3ccccc3)nn2n1 | 4% | -3% and -6% | 6% and 4%
O=C(O[C@H]1CN[C@H](C#Cc2cc3ncnc(Nc4ccc(Cc5ccccc5)cc4)c3s2)C1)N1CCOCC1 | 5% | 2% and 3% | -7%
Cc1cc(O)cc(C)c1/C=C/c1cncc(C(=O)OC(C)(C)C)c1 | -2% | -1% and -2% | -1% and 0%
COC(=O)c1cncc(/C=C/c2c(C)cc(O)cc2C)c1 | -6% | -4% and -5% | 3% and 2%
Clc1ccc(CNc2nccc(-c3cnn4ncccc34)n2)cc1 | -4% | 5% and -2% | -1%
COc1cc(Nc2nccc(-c3cnn4ncccc34)n2)cc(OC)c1 | 5% | -9% | -4% and -2%
O=C1NC(=O)C(c2cccc(Cl)c2)=C1Nc1ccc(Cl)c(C(=O)O)c1 | 27% | -8% and -3% | -6% and 2%
CCn1c(-c2nonc2N)nc2c(C#CC(C)(C)O)nc(OC[C@@H](N)c3ccccc3)cc21 | -1% | -6% and -5% | 13% and 12%
COc1cc(Nc2nccc(Nc3ccc4c(C)n[nH]c4c3)n2)cc(OC)c1OC | -5% | -2% | -1% and -2%
CS(=O)(=O)CCNCc1ccc(-c2ccc3ncnc(Nc4ccc(OCc5ccccc5)c(Br)c4)c3c2)o1 | 14% | -1% and -2% | 3% and 2%
COc1cc2c(cc1Nc1nc(Nc3ccsc3C(N)=O)c3cc[nH]c3n1)N(C(=O)CN(C)C)CCC2(C)C | 68% | -5% and -1% | 1% and 2%
N#Cc1c(NC(=O)c2ccc(F)cc2)sc2c1CCCC2 | 1% | -2% | 0% and 2%
c1cnn2ncc(-c3ccnc(NCCCN4CCOCC4)n3)c2c1 | 81% | -2% | 2% and 1%
c1ccc(COc2ccc(Nc3ncnc4ccc(-c5ccco5)cc34)cc2)cc1 | 99% | -1% and 4% | 3% and 2%
CC1=C(C(=O)Nc2ccc3[nH]nc(C)c3c2)C(c2ccc(C(F)(F)F)cc2)CC(=O)N1 (stereo not given) | 44% | 6% and 0% | 4% and 5%
CS(=O)(=O)CCNCc1ccc(-c2ccc3ncnc(Nc4ccc(OCc5cccc(F)c5)c(C(F)(F)F)c4)c3c2)o1 | 50% | 2% and -2% | -3% and -2%
Cc1ccc(C(=O)NC(C)C)cc1-c1ccc(C(=O)NCC2CC2)cc1 | -2% | -1% and 3% | 0% and -2%

Structure (SMILES) | inhibition [1] | inhibition [2] | inhibition [3]
NS(=O)(=O)c1ccc(-c2cc3ccncc3cc2OCc2ccccc2)cc1 | -3% | -4% and -6% | 1%
COc1ccccc1-c1cc(/C=C2\C(=O)Nc3ncc(Br)cc32)cc(Br)c1O | -2% | -4% and -2% | 0% and 4%
CCn1c(-c2nonc2N)nc2c(C#CCN)ncc(OCCCN)c21 | -4% | -3% and -6% | 22%
FC(F)(F)c1cccc(Nc2nccc(-c3cnn4nc(-c5ccccc5)ccc34)n2)c1 | -2% | 1% and 2% | -5% and -4%
COc1ccc(-c2ccc3c(NC(=O)C4CC4)n[nH]c3n2)cc1 | -5% | -5% | 1% and 2%
CCS(=O)(=O)c1ccc(OC)c(Nc2ncc(-c3cccc(-c4ccccc4F)c3)o2)c1 | 79% | 1% and 2% | -3% and 14%
COc1cc2ncn(-c3cc(OCc4ccccc4Cl)c(C(N)=O)s3)c2cc1OC | 83% | 2% and 1% | -1%
O=C(Nc1n[nH]c2cc(-c3cc(F)ccc3F)ccc12)C1CC1 | 6% | -2% and -5% | 2%
Cc1ccc2c(c1)/C(=N/Nc1ccc(S(N)(=O)=O)cc1)C(=O)N2 | 66% | 4% and 10% | 9% and -3%
Cn1c(-c2nonc2N)nc2cnccc21 | -9% | -4% and -2% | 27% and 23%
O=C(O[C@H]1CN[C@H](C#Cc2cc3ncnc(Nc4ccc(OCc5cccc(F)c5)c(Cl)c4)c3s2)C1)N1CCOCC1 | -3% | 0% and -1% | -1% and 0%
CN1CCN(C(=O)c2ccc(NC(=O)Nc3ccc(N(C)c4ccnc(Nc5ccc(CS(C)(=O)=O)cc5)n4)cc3)cc2)CC1 | 0% | -5% and -8% | 1% and 2%
COc1cc(C=NNc2ncnc3c2cnn3Cc2ccccc2)ccc1O | 5% | -7% | 4%
COc1ccc2ncn(-c3cc(O[C@H](C)c4ccccc4Cl)c(C(N)=O)s3)c2c1 | 86% | 6% and 3% | 1% and -8%
CCn1c(-c2nonc2N)nc2cncc(C(=O)N3CCNCC3)c21 | 0% | 13% and -2% | 2% and 0%
CCn1c(-c2nonc2N)nc2ccc(F)cc21 | -4% | 5% and 1% | 2%
C#Cc1cccc(Nc2ncnc3ccc(OCCCCNCCS(C)(=O)=O)cc23)c1 | 6% | -5% and -6% | 3%
Cc1ccc(C(=O)NC2CCC2)cc1-c1ccc(C(=O)NCC2CC2)cc1 | 2% | -7% and -4% | 4%
CNC(=O)c1cccc(C#Cc2cncnc2Nc2ccc(OCc3cccc(F)c3)c(Cl)c2)c1 | 61% | -2% and 0% | -1% and 17%
CCCN1CCC(Oc2cc(Nc3nc(Nc4cccc(F)c4C(N)=O)c4cc[nH]c4n3)c(OC)cc2Cl)CC1 | -6% | -5% and -1% | -1% and 2%
